Measured values from patent US20160015725A1, “METHODS OF CONTROLLING TUMOR BIOENERGETICS NETWORKS” (THE WISTAR INSTITUTE OF ANATOMY AND BIOLOGY, priority 2012, published 2016).

How the values were obtained:
tumor cells [1] = experiment: Autophagy (LC3 conversion, LC3-CFP puncta); assay type: cell-based, human
Procedure: LN229 cells were transfected with various siRNAs, and mixed after 24 h with plasmid encoding cyan fluorescent protein (CFP) fused to human […] (LC3) cDNA in the presence of Lipofectamine 2000 Transfection Reagent (Invitrogen). After 48 h, transfected cells were fixed in 4% paraformaldehyde for 15 min at 37° C., washed, and examined by fluorescence microscopy (Nikon, E600). The numbers of CFP-LC3 punctate dots per cell was determined from three independent experiments. A minimum of 50 CFP-LC3-positive cells assessed from at least ten random fields per sample were counted in triplicate per each condition.
Samples were imaged using a Leica TCS SP2 confocal microscope. For determination of autophagy, cells under the various conditions tested were harvested after 12 h, and analyzed with an antibody to […] (LC3) by Western blotting.

tumor cells [2] = experiment: Mitochondrial permeability transition; assay type: cell-based, human; conditions: non-cytotoxic concentrations
Procedure: (a) FIG. 18a is a bar graph showing percent viability of aliquots of the human tumor cell lines PC3, LNCaP, LN229, A549, or MCF-7 incubated with the indicated increasing concentrations of Gamitrinib for 5 hr and analyzed for changes in cell viability by direct cell counting. Mean±SD (n=2). (b) FIG. 18b are two parameter histogram dot plots of human glioblastoma LN229 cells left untreated (None) or incubated with 5 μM 17-AAG or Gamitrinib (Gam) for 5 hr and analyzed for changes in mitochondrial membrane potential by JC-1 staining and multiparametric flow cytometry. The mitochondrial uncoupler carbonyl cyanide 3-chlorophenylhydrazone (CCCP) was used as a control. The percentage of cells in each quadrant is indicated. FL1, green fluorescence; FL2, red fluorescence.

[3] = tested on: multiple tumor cell types; experiment: ATP production in tumor cells (luciferin-luciferase); assay type: cell-based, human
Procedure: Intracellular ATP concentrations were measured by the luciferin—luciferase method using an ATP measuring kit (Biochain). The ATP concentration in each extract was measured with a microplate luminometer (Beckman Coulter) against standard ATP solutions used as reference. In some experiments, PC3 or LN229 cells were preincubated with sodium pyruvate for 7 h in the presence of vehicle or Gamitrinib before determination of ATP production.

hexokinase-II (HK-II) = experiment: Subcellular fractionation and Western blotting of hexokinases; assay type: cell-based, human; conditions: LN229, 5 h
Procedure: Mitochondrial fractions were isolated from Gamitrinib treated LN229 cells (0-20 μM for 5 h) using an ApoAlert™ cell fractionation kit (CLONTECH). Briefly, LN229 cells were mechanically disrupted by 60 strokes with a Dounce homogenizer in isolation buffer containing 1 mM DTT plus protease inhibitor cocktail. Cell debris was removed by centrifugation at 700 g for 10 min. The supernatant was further centrifuged at 10,000 g for 25 min, and supernantants or mitochondrial pellets were processed for further analysis.
For Western blotting, protein lysates were prepared from the different cell types in RIPA Buffer (150 mM NaCl, 1.0% Triton X-100, 0.5% sodium deoxycholate, 0.1% SDS, 50 mM Tris, pH 8.0) containing EDTA-free Protease Inhibitor Cocktail (Roche) and Phosphatase Inhibitor Cocktail 2 and 3 (Sigma Aldrich). Equal amounts of protein lysates were separated by SDS gel electrophoresis, transferred to PVDF membranes and incubated with primary antibodies of various specificities. Protein bands were detected by chemiluminescence.

CypD = experiment: Mitochondrial protein folding (detergent solubility); assay type: cell-based, human; conditions: increasing CHAPS concentrations
Procedure: Mitochondrial protein folding assays were performed as described (Moisoi et al., 2009). Briefly, mitochondrial fractions were isolated from vehicle- or Gamitrinib-treated LN229 cells (5 μM for 12 h) and suspended in equal volume of mitochondrial fractionation buffer containing increasing concentrations of CHAPS (0, 0.05, 0.1, 0.2, 0.5, 1 or 2%). Samples were incubated for 20 min on ice and detergent-insoluble protein aggregates were isolated by centrifugation (20,000 g) for 20 min. Pellets were processed for further analysis.

WT BRAF spheroids = experiment: 3D organotypic spheroids, WT BRAF; assay type: cell-based, human; conditions: collagen-embedded, 72 h
Procedure: For analysis of tumor cell survival in 3D organotypic cultures, melanoma spheroids were prepared as previously described. Briefly, 50 μl aliquots of the various melanoma cell types (5×10^4 cells/ml) were seeded onto 96-well plates coated with 1.5% agar (Difco, Sparks, Md.) in PBS. Spheroids were allowed to form for 72 h and then embedded in 100 μl of bovine collagen type I (Organogenesis, Canton, Mass.). Spheroids were overlaid with 100 μl of Tu2% growth medium and treated with inhibitors for 72 hours. Quantification of live vs. dead cells under the various conditions tested was performed by staining the melanoma spheroids after 72 h of treatment with calcein-AM (live) and Topro-3 (dead) (Invitrogen) for 1 h (data not shown).

[4] = tested on: AMP-activated kinase (AMPK); experiment: AMPK phosphorylation in tumor cells, Western blotting; assay type: cell-based, human
hexokinase = experiment: Hexokinase activity in mitochondrial fractions of treated cells; assay type: cell-based, human; conditions: LN229 mitochondrial fractions, 5 h
Procedure: HK activity in LN229 cells was measured as the total glucosephosphorylating activity using a standard G6PDH-coupled assay kit (BioVision). Mitochondria isolated from Gamitrinib- or 17-AAG-treated LN229 cells, or cultures transfected with various siRNAs were homogenized in cold PBS, followed by centrifugation at 1000 g for 10 min at 4° C. HK activity was determined by analysis of G6P-dependent conversion of NADP to NADPH in the presence of excess […] in the presence of 2 mM glucose, and quantification of absorbance at 450 nm. All assays were performed at 25° C. under conditions of linear HK-limited NADPH formation.

[5] = tested on: TRAMP (Transgenic Adenocarcinoma of the Mouse Prostate) mice; conditions: cited from earlier work

CO[C@H]1/C=C\C=C(/C)C(=O)NC2=CC(=O)C(NCCCCCC[P+](c3ccccc3)(c3ccccc3)c3ccccc3)=C(C[C@@H](C)C[C@H](OC)[C@H](O)[C@@H](C)/C=C(\C)[C@@H]1OC(N)=O)C2=O [Gamitrinib]
autophagy (LC3-II conversion) (tumor cells [1]): strongly activated autophagy
mitochondrial permeability transition (tumor cells [2]): do not trigger mitochondrial permeability transition
time to inhibition of ATP production ([3]; multiple tumor cell types): ≤ 5 h
ATP production ([3]; tumor cell types, non-cytotoxic concentrations, 5 h): concentration-dependent inhibition of ATP production
HK-II localization (mitochondria vs cytosol) (hexokinase-II (HK-II)): concentration-dependent release of hexokinase-II (HKII) from mitochondria
COX-IV solubility (CypD): indistinguishable in control or Gamitrinib-treated cells
CypD solubility (CypD; vs untreated cultures): caused CypD to remain insoluble over a broad range of detergent concentrations
cell death in 3D spheroids (WT BRAF spheroids): resistant to cell death
AMPK and eIF2α phosphorylation, combined with 2-DG ([4]; Gamitrinib combined with 2-DG): maximally stimulated AMPK and eIF2α phosphorylation
AMPK phosphorylation, combination of metformin plus Gamitrinib ([4]; combination with metformin): did not further stimulate AMPK phosphorylation
AMPK activation compared with metformin ([4]; tumor cells): more prominent than that induced by metformin
AMPK activation remained sustained ([4]; tumor cells): ≥ 9 h
AMPK phosphorylation ([4]; tumor cells): concentration dependent phosphorylation of AMP-activated kinase (AMPK)
onset of AMPK activation ([4]; tumor cells): ≤ 30 min
total AMPK levels ([4]; tumor cells): not affected
hexokinase activity (hexokinase): a decrease in hexokinase activity
residual prostatic adenocarcinoma at end of experiment ([5]; 5 mg/kg i.p., 3 d on/2 d off): only one animal displayed a small residual area of prostatic adenocarcinoma
Prostatic Intraepithelial Neoplasia (PIN) ([5]; systemic treatment): did not affect Prostatic Intraepithelial Neoplasia (PIN)
primary and metastatic prostate cancer growth ([5]; systemic treatment): inhibited primary and metastatic prostate cancer growth
